Results from patent US6737383B1, “Herbicidal oxadiazolidines” (priority 1999, dated 2004).

What was measured:
velvetleaf = test: Test B pre/postemergence velvetleaf; assay type: in vivo, Abutilon theophrasti
Method in brief: (§1)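 Test chemicals in a non-phytotoxic solvent mixture with surfactant were sprayed preemergence onto planted seeds and postemergence onto plants 2 to 18 cm tall (1- to 4-leaf stage). After twelve to sixteen days in a greenhouse, injury was visually rated against untreated controls from 0 (no effect) to 10 (complete control).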

surinam grass = test: Test B pre/postemergence surinam grass; assay type: in vivo, Brachiaria decumbens
Method in brief: as §1

morningglory = test: Test B pre/postemergence morningglory; assay type: in vivo, Ipomoea hederacea
Method in brief: as §1

pigweed = test: Test B pre/postemergence pigweed; assay type: in vivo, Amaranthus retroflexus
Method in brief: as §1

crabgrass = test: Test B pre/postemergence crabgrass; assay type: in vivo, Digitaria sanguinalis
Method in brief: as §1

wild oat = test: Test B pre/postemergence wild oat; assay type: in vivo, Avena fatua
Method in brief: as §1

bamyardgrass = test: Test B flood test barnyardgrass; assay type: in vivo, Echinochloa crus-galli
Method in brief: (§2)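 Flood test on plants grown to the 2-leaf stage; treated plants kept in greenhouse twelve to sixteen days, then visually rated against controls on a 0 (no effect) to 10 (complete control) scale.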

sugar beet = test: Test B pre/postemergence sugar beet; assay type: in vivo, Beta vulgaris
Method in brief: as §1

smallflower flatsedge = test: Test B flood test smallflower flatsedge; assay type: in vivo, Cyperus difformis
Method in brief: as §2

rape = test: Test B pre/postemergence rape; assay type: in vivo, Brassica napus
Method in brief: as §1

duck salad = test: Test B flood test duck salad; assay type: in vivo, Heteranthera limosa
Method in brief: as §2

soybean = test: Test B pre/postemergence soybean; assay type: in vivo, Glycine max
Method in brief: as §1

cocklebur = test: Test B pre/postemergence cocklebur; assay type: in vivo, Xanthium strumarium
Method in brief: as §1

rice = test: Test B flood test rice; assay type: in vivo, Oryza sativa
Method in brief: as §2

bedstraw = test: Test B pre/postemergence bedstraw; assay type: in vivo, Galium aparine; conditions: Postemergence, Rate 125 g/ha; scale of 0 to 10 where 0 is no effect and 10 is complete control
Method in brief: as §1

corn = test: Test B pre/postemergence corn; assay type: in vivo, Zea mays
Method in brief: as §1

[1] = Postemergence, Rate 62 g/ha, scale 0 to 10, 0 is no effect, 10 is complete control
[2] = Postemergence, Rate 125 g/ha, scale of 0 to 10 where 0 is no effect and 10 is complete control
[3] = Preemergence, Rate 62 g/ha, scale of 0 to 10 where 0 is no effect and 10 is complete control
[4] = Preemergence, Rate 125 g/ha, scale of 0 to 10 where 0 is no effect and 10 is complete control
[5] = Preemergence, Rate 250 g/ha, scale 0 to 10 (0 no effect, 10 complete control)
[6] = Preemergence, Rate 500 g/ha, scale of 0 to 10 where 0 is no effect and 10 is complete control
[7] = Rate 500 g/ha, Postemergence, scale 0 to 10, 0 is no effect, 10 is complete control
[8] = Postemergence, Rate 250 g/ha, scale of 0 to 10, 0 is no effect, 10 is complete control
[9] = Rate 62 g/ha, flood test species, Pre-emergence, visual evaluation after twelve to sixteen days
[10] = Rate 125 g/ha, under heading Pre-emergence, flood test species, visual evaluation after twelve to sixteen days
[11] = Rate 250 g/ha, Pre-emergence (flood test species), scale 0 to 10, 0 is no effect, 10 is complete control
[12] = Rate 500 g/ha, Pre-emergence section of Table B, 0 to 10 scale (0 no effect, 10 complete control)

SMILES: CC(C)N(C(=O)n1oc(=O)n(CCF)c1=O)c1ccc(Cl)cc1 [Compound 668]
- Plant response rating, Velvetleaf (velvetleaf; [1]): 0
- Velvetleaf plant response rating (velvetleaf; [2]): 0
- Velvetleaf plant response rating (velvetleaf; [3]): 3
- Velvetleaf plant response rating (velvetleaf; [4]): 6
- Plant response rating, Velvetleaf (velvetleaf; [5]): 7
- Plant response rating, Velvetleaf (velvetleaf; [6]): 8
- Velvetleaf plant response rating (velvetleaf; [7]): 7
- Plant response rating, B. signalgrass (surinam grass; [1]): 1
- Plant response rating, B. signalgrass (surinam grass; [2]): 2
- B. signalgrass plant response rating (surinam grass; [8]): 4
- B. signalgrass plant response rating (surinam grass; [3]): 5
- B. signalgrass plant response rating (surinam grass; [4]): 8
- Plant response rating, B. signalgrass (surinam grass; [5]): 8
- Plant response rating, B. signalgrass (surinam grass; [6]): 9
- B. signalgrass plant response rating (surinam grass; [7]): 5
- Plant response rating, Morningglory (morningglory; [1]): 1
- Morningglory plant response rating (morningglory; [2]): 3
- Morningglory plant response rating (morningglory; [8]): 4
- Morningglory plant response rating (morningglory; [3]): 0
- Morningglory plant response rating (morningglory; [4]): 0
- Plant response rating, Morningglory (morningglory; [5]): 0
- Plant response rating, Morningglory (morningglory; [6]): 5
- Morningglory plant response rating (morningglory; [7]): 4
- Plant response rating, Redroot pigweed (pigweed; [1]): 3
- Redroot pigweed plant response rating (pigweed; [2]): 5
- Redroot pigweed plant response rating (pigweed; [3]): 0
- Redroot pigweed plant response rating (pigweed; [4]): 7
- Plant response rating, Redroot pigweed (pigweed; [5]): 10
- Plant response rating, Redroot pigweed (pigweed; [6]): 10
- Redroot pigweed plant response rating (pigweed; [7]): 7
- Plant response rating, Crabgrass (crabgrass; [1]): 6
- Crabgrass plant response rating (crabgrass; [2]): 9
- Crabgrass plant response rating (crabgrass; [8]): 9
- Crabgrass plant response rating (crabgrass; [3]): 8
- Crabgrass plant response rating (crabgrass; [4]): 8
- Plant response rating, Crabgrass (crabgrass; [5]): 8
- Plant response rating, Crabgrass (crabgrass; [6]): 8
- Crabgrass plant response rating (crabgrass; [7]): 10
- Plant response rating, Wild oats (wild oat; [1]): 0
- Wild oats plant response rating (wild oat; [2]): 0
- Wild oats plant response rating (wild oat; [3]): 2
- Wild oats plant response rating (wild oat; [4]): 7
- Plant response rating, Wild oats (wild oat; [5]): 8
- Plant response rating, Wild oats (wild oat; [6]): 9
- Wild oats plant response rating (wild oat; [7]): 0
- Plant response rating, Barnyardgrass (0 to 10 scale, 0 is no effect, 10 is complete control) (bamyardgrass; [9]): 0
- Barnyardgrass plant response rating (0 to 10 scale, 0 is no effect, 10 is complete control) (bamyardgrass; [10]): 0
- Barnyardgrass plant response rating (bamyardgrass; [11]): 0
- Barnyardgrass plant response rating (bamyardgrass; [12]): 0
- Plant response rating, Sugarbeets (sugar beet; [1]): 0
- Sugarbeets plant response rating (sugar beet; [2]): 0
- Sugarbeets plant response rating (sugar beet; [3]): 0
- Sugarbeets plant response rating (sugar beet; [4]): 6
- Plant response rating, Sugarbeets (sugar beet; [5]): 6
- Plant response rating, Sugarbeets (sugar beet; [6]): 9
- Sugarbeets plant response rating (sugar beet; [7]): 6
- Plant response rating, S. Flatsedge (0 to 10 scale, 0 is no effect, 10 is complete control) (smallflower flatsedge; [9]): 0
- S. Flatsedge plant response rating (0 to 10 scale, 0 is no effect, 10 is complete control) (smallflower flatsedge; [10]): 0
- S. Flatsedge plant response rating (smallflower flatsedge; [11]): 0
- S. Flatsedge plant response rating (smallflower flatsedge; [12]): 0
- Plant response rating, Rape (rape; [1]): 2
- Rape plant response rating (rape; [2]): 3
- Rape plant response rating (rape; [3]): 0
- Rape plant response rating (rape; [4]): 5
- Plant response rating, Rape (rape; [5]): 8
- Plant response rating, Rape (rape; [6]): 9
- Rape plant response rating (rape; [7]): 4
- Plant response rating, Ducksalad (0 to 10 scale, 0 is no effect, 10 is complete control) (duck salad; [9]): 0
- Ducksalad plant response rating (0 to 10 scale, 0 is no effect, 10 is complete control) (duck salad; [10]): 0
- Ducksalad plant response rating (duck salad; [11]): 0
- Ducksalad plant response rating (duck salad; [12]): 0
- Plant response rating, Soybean (soybean; [1]): 2
- Soybean plant response rating (soybean; [2]): 2
- Soybean plant response rating (soybean; [3]): 0
- Soybean plant response rating (soybean; [4]): 1
- Plant response rating, Soybean (soybean; [5]): 1
- Plant response rating, Soybean (soybean; [6]): 6
- Soybean plant response rating (soybean; [7]): 6
- Plant response rating, Cocklebur (cocklebur; [1]): 0
- Cocklebur plant response rating (cocklebur; [2]): 0
- Cocklebur plant response rating (cocklebur; [8]): 2
- Cocklebur plant response rating (cocklebur; [3]): 0
- Cocklebur plant response rating (cocklebur; [4]): 0
- Plant response rating, Cocklebur (cocklebur; [5]): 0
- Plant response rating, Cocklebur (cocklebur; [6]): 0
- Cocklebur plant response rating (cocklebur; [7]): 2
- Plant response rating, Rice (0 to 10 scale, 0 is no effect, 10 is complete control) (rice; [9]): 0
- Rice plant response rating (0 to 10 scale, 0 is no effect, 10 is complete control) (rice; [10]): 0
- Rice plant response rating (rice; [11]): 0
- Rice plant response rating (rice; [12]): 0
- Bedstraw plant response rating (bedstraw): 0
- Plant response rating, Corn (corn; [1]): 0
- Corn plant response rating (corn; [2]): 0
- Corn plant response rating (corn; [8]): 3
- Corn plant response rating (corn; [3]): 0
- Plant response rating, Corn (corn; [5]): 4
- Plant response rating, Corn (corn; [6]): 9
- Corn plant response rating (corn; [7]): 3
